Measured values: patent US8895745B2, “Bicyclic heterocyclic compounds as FGFR inhibitors” (Astex Therapeutics Limited, priority 2006, dated 2014)
Where a name gives a salt, the structure may show the parent alone.

tested on: LP-1 cell line; assay: Cell-based pERK ELISA method, LP-1 cells; details: Homo sapiens, LP-1, read-out: IC50 less than 1 μM or at least 50% inhibition at a concentration of 1 μM, LP-1 pERK ELISA
Description: LP-1 or JIM-1 multiple myeloma cells were seeded in 96 well plates at 1×10^6 cells/ml in 200 ul per well in serum free media. […] Cells were incubated for 16 h at 37° C. prior to the addition of a test compound for 30 minutes. Test compounds were administered at a 0.1% final DMSO concentration. […] ELISA plates and standards were prepared according o the standard DuoSet protocols and the relative amounts of pERK to total ERK in each sample calculated according to the standard curve.
In particular, compounds of the invention were tested against the LP-1 cell line (DSMZ no.: ACC 41) derived from human multiple myeloma.

SMILES | IC50
CCc1nnc(-c2ccn3c(-c4cccc(NC(=O)NCC(F)(F)F)c4)cnc3c2)s1 [Example 260, 1-{3-[7-(5-Ethyl-[1,3,4]thiadiazol-2-yl)-imidazo[1,2-a]pyridin-3-yl]-phenyl}-3-(2,2,2-trifluoro-ethyl)-urea] | < 1 µM
CCNC(=O)c1cccc(-c2ccn3c(-c4cccc(NC(=O)NCC(F)(F)F)c4)cnc3c2)c1 [Example 261, N-Ethyl-3-(3-{3-[3-(2,2,2-trifluoro-ethyl)-ureido]-phenyl}-imidazo[1,2-a]pyridin-7-yl)-benzamide Formate] | < 1 µM
CN(C)S(=O)(=O)n1cc(-c2ccn3c(-c4cccc(NC(=O)NCC(F)(F)F)c4)cnc3c2)cn1 [Example 262, 4-(3-{3-[3-(2,2,2-Trifluoro-ethyl)-ureido]-phenyl}-imidazo[1,2-a]pyridin-7-yl)-pyrazole-1-sulfonic acid dimethylamide] | < 1 µM
COCCNC(=O)c1cccc(-c2ccn3c(-c4cccc(NC(=O)NCC(F)(F)F)c4)cnc3c2)c1 [Example 263, N-(2-Methoxy-ethyl)-3-(3-{3-[3-(2,2,2-trifluoro-ethyl)-ureido]-phenyl}-imidazo[1,2-a]pyridin-7-yl)-benzamide] | < 1 µM
O=C(NCC(F)(F)F)Nc1cccc(-c2cnc3cc(-c4cccc(C(=O)N5CCC5)c4)ccn23)c1 [Example 264, 1-(3-{7-[3- (Azetidine 1-carbonyl)-phenyl]-imidazo[1,2-a]pyridin-3-yl}-phenyl)-3-(2,2,2-trifluoro-ethyl)-urea] | < 1 µM
CCNC(=O)Nc1cc(-c2cnc3cc(-c4ccc(F)cc4)ccn23)ccc1F [Example 266, 1-Ethyl-3-{2-fluoro-5-[7-(4-fluoro-phenyl)-imidazo[1,2-a]pyridin-3-yl]-phenyl}-urea] | < 1 µM
CC(C)NC(=O)c1cccc(-c2ccn3c(-c4cccc(NC(=O)NCC(F)(F)F)c4)cnc3c2)c1 [Example 267, N-Isopropyl-3-(3-{3-[3-(2,2,2-trifluoro-ethyl)-ureido]-phenyl}-imidazo[1,2-a]pyridin-7-yl)-benzamide] | < 1 µM
O=C(NCC(F)(F)F)Nc1cccc(-c2cnc3cc(-c4ccc(F)cc4F)ccn23)c1 [Example 269, 1-{3-[7-(2,4-Difluoro-phenyl)-imidazo[1,2-a]pyridin-3-yl]-phenyl}-3-(2,2,2-trifluoro-ethyl)-urea] | < 1 µM
Cc1ccc(-c2ccn3c(-c4cccc(NC(=O)NCC(F)(F)F)c4)cnc3c2)s1 [Example 270, 1-{3-[7-(5-Methyl-thiophen-2-yl)-imidazo[1,2-a]pyridin-3-yl]-phenyl}-3-(2,2,2-trifluoro-ethyl)-urea formate] | < 1 µM
COc1ccc(-c2ccn3c(-c4cccc(NC(=O)NCC(F)(F)F)c4)cnc3c2)cc1 [Example 271, 1-{3-[7-(4-Methoxy-phenyl)-imidazo[1,2-a]pyridin-3-yl]-phenyl}-3-(2,2,2-trifluoro-ethyl)-urea] | < 1 µM
O=C(NCC(F)(F)F)Nc1cccc(-c2cnc3cc(-c4ccc(Cl)cc4)ccn23)c1 [Example 273, 1-{3-[7-(4-Chloro-phenyl)-imidazo[1,2-a]pyridin-3-yl]-phenyl}-3-(2,2,2-trifluoro-ethyl)-urea] | < 1 µM
O=C(NCC(F)(F)F)Nc1cccc(-c2cnc3cc(-c4cccc(Cl)c4)ccn23)c1 [Example 278] | < 1 µM
COc1cccc(-c2ccn3c(-c4cccc(NC(=O)NCC(F)(F)F)c4)cnc3c2)c1 [Example 279, 1-{3-[7-(3-Methoxy-phenyl)-imidazo[1,2-a]pyridin-3-yl]-phenyl}-3-(2,2,2-trifluoro-ethyl)-urea] | < 1 µM
O=C(NCC(F)(F)F)Nc1cccc(-c2cnc3cc(-c4ccc(Cl)c(F)c4)ccn23)c1 [Example 280, 1-{3-[7-(4-Chloro-3-fluoro-phenyl)-imidazo[1,2-a]pyridin-3-yl]-phenyl}-3-(2,2,2-trifluoro-ethyl)-urea] | < 1 µM

More lines, now with the values ahead:

IC50 | SMILES
< 1 µM | O=C(NCC(F)(F)F)Nc1cccc(-c2cnc3cc(-c4cccc(C(=O)N5CCCNCC5)c4)ccn23)c1 [Example 283, 1-(3-{7-[3-([1,4] Diazepane-1-carbonyl)-phenyl]-imidazo[1,2-a]pyridin-3-yl}-phenyl)-3-(2,2,2-trifluoro-ethyl)-urea Hydrochloride]
< 1 µM | O=C(NCC(F)(F)F)Nc1cccc(-c2cnc3cc(-c4ccc(F)c(Cl)c4)ccn23)c1 [Example 284, 1-{3-[7-(3-Chloro-4-fluoro-phenyl)-imidazo[1,2-a]pyridin-3-yl]-phenyl}-3-(2,2,2-trifluoro-ethyl)-urea]
< 1 µM | O=C(NCC(F)(F)F)Nc1cccc(-c2cnc3cc(-c4ccc(C5CNCCN5)cc4)ccn23)c1 (stereo not drawn) [Example 296, 1-{3-[7-(4-Piperazin-2-yl-phenyl)-imidazo[1,2-a]pyridin-3-yl]-phenyl}-3-(2,2,2-trifluoro-ethyl)-urea hydrochloride]
< 1 µM | O=C(NCC(F)(F)F)Nc1cccc(-c2cnc3cc(-c4nnco4)ccn23)c1 [Example 330, 1-[3-(7-[1,3,4]Oxadiazol-2-yl-imidazo[1,2-a]pyridin-3-yl)-phenyl]-3-(2,2,2-trifluoro-ethyl)-urea]
< 1 µM | Cn1c(-c2ccn3c(-c4cccc(NC(=O)NCC(F)(F)F)c4)cnc3c2)n[nH]c1=S [Example 332, 1-{3-[7-(4-Methyl-5-thioxo-4,5-dihydro-1H-[1,2,4]triazol-3-yl)-imidazo[1,2-a]pyridin-3-yl]-phenyl}-3-(2,2,2-trifluoro-ethyl)-urea]
< 1 µM | O=C(NCC(F)(F)F)Nc1cccc(-c2cnc3cc(C4CC4)ccn23)c1 [Example 334, 1-[3-(7-Cyclopropyl-imidazo[1,2-a]pyridin-3-yl)-phenyl]-3-(2,2,2-trifluoro-ethyl)-urea Formate]
< 1 µM | COc1ccn2c(-c3cccc(NC(=O)NCC(F)(F)F)c3)cnc2c1 [Example 336, 1-[3-(7-Methoxy-imidazo[1,2-a]pyridin-3-yl)-phenyl]-3-(2,2,2-trifluoro-ethyl)-urea Formate]
< 1 µM | CCOc1ccn2c(-c3cccc(NC(=O)NCC(F)(F)F)c3)cnc2c1 [Example 337, 1-[3-(7-Ethoxy-imidazo[1,2-a]pyridin-3-yl)-phenyl]-3-(2,2,2-trifluoro-ethyl)-urea Formate]
< 1 µM | N#Cc1ccn2c(-c3cccc(NC(=O)NCC(F)(F)F)c3)cnc2c1 [Example 341, 1-[3-(7-Cyano-imidazo[1,2-a]pyridin-3-yl)-phenyl]-3-(2,2,2-trifluoro-ethyl)-urea]
< 1 µM | CNC(=O)/C=C/c1ccn2c(-c3cccc(NC(=O)NCC(F)(F)F)c3)cnc2c1 [Example 344, (E)-N-Methyl-3-(3-{3-[3-(2,2,2-trifluoro-ethyl)-ureido]-phenyl}-imidazo[1,2-a]pyridin-7-yl)-acrylamide]
< 1 µM | CN(C)C(=O)/C=C/c1ccn2c(-c3cccc(NC(=O)NCC(F)(F)F)c3)cnc2c1 [Example 345, (E)-N,N-Dimethyl-3-(3-{3-[3-(2,2,2-trifluoro-ethyl)-ureido]-phenyl}-imidazo[1,2-a]pyridin-7-yl)-acrylamide]
< 1 µM | Cc1cc2ncc(-c3cccc(NC(=O)NCC(F)(F)F)c3)n2cc1Cl [Example 346, 1-[3-(6-Chloro-7-methyl-imidazo[1,2-a]pyridin-3-yl)-phenyl]-3-(2,2,2-trifluoro-ethyl)-urea]
< 1 µM | Cc1nc(-c2ccn3c(-c4cccc(NC(=O)NCC(F)(F)F)c4)cnc3c2)cs1 [Example 348, 1-{3-[7-(2-Methyl-thiazol-4-yl)-imidazo[1,2-a]pyridin-3-yl]-phenyl}-3-(2,2,2-trifluoro-ethyl)-urea]
< 1 µM | Cn1cc(-c2cnc3c(-c4cncc(NC(=O)NCC(F)(F)F)c4)cnn3c2)cn1 [Example 349, 1-{5-[6-(1-Methyl-1H-pyrazol-4-yl)-pyrazolo[1,5-a]pyrimidin-3-yl]-pyridin-3-yl}-3-(2,2,2-trifluoro-ethyl)-urea]
< 1 µM | CC(C)(O)c1ccc(-c2ccn3c(-c4cccc(NC(=O)NCC(F)(F)F)c4)cnc3c2)cn1 [Example 351, 1-(3-{7-[6-(1-Hydroxy-1-methyl-ethyl)-pyridin-3-yl]-imidazo[1,2-a]pyridin-3-yl}-phenyl)-3-(2,2,2-trifluoro-ethyl)-urea]

same assay, conditions: Homo sapiens, LP-1, read-out: LP-1 pERK ELISA (μM)

IC50 | SMILES
0.0042 µM | Cc1nnc(-c2ccn3c(-c4cccc(NC(=O)NCC(F)(F)F)c4)cnc3c2)s1 [Example 310, 1-{3-[7-(5-Methyl-[1,3,4]-thiadiazol-2-yl)-imidazo[1,2-a]pyridin-3-yl]-phenyl}-3-(2,2,2-trifluoro-ethyl)-urea]
0.143 µM | Cc1nnc(-c2ccn3c(-c4cccc(NC(=O)NCC(F)(F)F)c4)cnc3c2)o1 [Example 329, 1-{3-[7-(5-Methyl-[1,3,4]oxadiazol-2-yl)-imidazo[1,2-a]pyridin-3-yl]-phenyl}-3-(2,2,2-trifluoro-ethyl)-urea]
0.0157 µM | CSc1nnc(-c2ccn3c(-c4cccc(NC(=O)NCC(F)(F)F)c4)cnc3c2)o1 [Example 354, 1-{3-[7-(5-Methylsulfanyl-[1,3,4]oxadiazol-2-yl)-imidazo[1,2-a]pyridin-3-yl]-phenyl}-3-(2,2,2-trifluoro-ethyl)-urea]
0.033 µM | Cn1nnc(-c2ccn3c(-c4cccc(NC(=O)NCC(F)(F)F)c4)cnc3c2)n1 [Example 359, 1-{3-[7-(2-Methyl-2H-tetrazol-5-yl)-imidazo[1,2-a]pyridin-3-yl]-phenyl}-3-(2,2,2-trifluoro-ethyl)-urea]
0.022 µM | Cn1cnc(-c2ccn3c(-c4cccc(NC(=O)NCC(F)(F)F)c4)cnc3c2)c1 [Example 375, 1-{3-[7-(1-Methyl-1H-imidazol-4-yl)-imidazo[1,2-a]pyridin-3-yl]-phenyl}-3-(2,2,2-trifluoro-ethyl)-urea]
0.019 µM | O=C(NCC(F)(F)F)Nc1cccc(-c2cnc3cc(-c4nncs4)ccn23)c1 [Example 384, 1-[3-(7-[1,3,4]Thiadiazol-2-yl-imidazo[1,2-a]pyridin-3-yl)-phenyl]-3-(2,2,2-trifluoro-ethyl)-urea]

SMILES | IC50
Cc1c(-c2ccn3c(-c4cccc(NC(=O)NCC(F)(F)F)c4)cnc3c2)nnn1C [Example 378, 1-{3-[7-(1,5-Dimethyl-1H-[1,2,3]triazol-4-yl)-imidazo[1,2-a]pyridin-3-yl]-phenyl}-3-(2,2,2-trifluoro-ethyl)-urea formate] | 0.016 µM
